Measurements reported in US5225531A, “Hexapeptide Lys Gly Ala Gly Asp Val” (Washington University, priority 1992, dated 1993).
No end group written: not given here.

Tested on: human platelet rich plasma
Assay type: cell-based
Experimental: Platelet aggregation assay--Aggregation studies using human platelet rich plasma were performed as previously described (20). Briefly, blood from human volunteers who had not taken any antiplatelet drugs in the previous two weeks was collected into 1/10th volume of CCD buffer (100 mM sodium citrate, 136 mM glucose, pH 6.5). The blood was centrifuged for 3 min at 1000×g and the platelet rich plasma (PRP) was transferred to a plastic tube with a plastic pipet. The PRP was adjusted to 2×10^8 platelets/ml with platelet poor plasma (prepared by centrifuging anti-coagulated blood at 2000×g for 15 min) and placed on ice. PRP and control (saline) or test peptides (500 μl) were incubated with 5 μM ADP at 37° C. in a silanized glass cuvette with stirring (900 RPM). The extent of aggregation was monitored with a Payton aggregometer 2 min after the addition of ADP. Inhibition of aggregation for each sample was determined using the following formula: % Inhibition=[…], where Tbase =% of light transmission in PRP, Tagg =% of light transmission in the aggregated PRP sample containing the saline control for peptides, and Tpep =% of light transmission in the aggregated PRP sample containing the peptide inhibitor.

## HHLGGAKGAGDV
  Platelet ID50 (inhibition of platelet aggregation): > 100 µM
